Data: patent US11466019B2, “Triazolo[4,5-d] pyramidine derivatives and their use as purine receptor antagonists” (Vernalis (R&D) Limited, priority 2008, dated 2022)
Read-outs that look alike come from different tables or passages of the source.

Assays:
[1] = system: haloperidol-induced deficits in locomotor activity in mice; test: Haloperidol-induced hypolocomotion model (HaloLMA); format: in vivo; conditions: female TO mice, intraperitoneal, haloperidol 0.2 mg/kg
Text: Evaluation of Potential Anti-Parkinsonian Activity In Vivo: Haloperidol-Induced Hypolocomotion Model
This approach is also considered a valid method for screening drugs with potential antiparkinsonian effects. Thus, the ability of novel adenosine antagonists to block haloperidol-induced deficits in locomotor activity in mice can be used to assess both in vivo and potential antiparkinsonian efficacy.
Female TO mice (25-30 g) are used for all experiments. Animals are housed in groups of 8 (cage size-40 cm (width) by 40 cm (length) by 20 cm (height)) under 12 hour light/dark cycle (lights on 08:00), in a temperature (20±2° C.) and humidity (55±15%) controlled environment. Animals have free access to food and water, and are allowed at least 7 days to acclimatize after delivery before experimental use.
Liquid injectable haloperidol (e.g., 1 mL Serenance ampoules from Baker Norton, Harlow, Essex, each containing haloperidol BP 5 mg) are diluted to a final concentration of 0.02 mg/mL using saline. Test compounds are typically prepared as aqueous suspensions in 8% Tween. All compounds are administered intraperitoneally in a volume of 10 mL/kg.
1.5 hours before testing, mice are administered 0.2 mg/kg haloperidol, a dose that reduces baseline locomotor activity by at least 50%. Test substances are typically administered 5-60 minutes prior to testing. The animals are then placed individually into clean, clear polycarbonate cages (20 cm (width) by 40 cm (length) by 20 cm (height), with a flat perforated, Perspex lid). Horizontal locomotor activity is determined by placing the cages within a frame containing a 3 by 6 array of photocells linked to a computer, which tabulates beam breaks. Mice are left undisturbed to explore for 1 hour, and the number of beams breaks made during this period serves as a record of locomotor activity which is compared with data for control animals for statistically significant differences.
A number of the exemplified compounds of the present invention were tested in this assay and the results obtained are shown in Table 3, below.

[2] = biological target: T1, human adenosine A1 receptors (Homo sapiens, UniProt P30542); test: Adenosine receptor binding: binding affinities at hA1 receptors ([3H]DPCPX displacement); conditions: for Ki: read-out: Binding Affinity hA1-Ki; for Binding Selectivity A1/A2a: ratio of Ki values
T1 construct: expressed in transfected cells; host or cells: CHO-K1
T1 sequence (P30542 1-326): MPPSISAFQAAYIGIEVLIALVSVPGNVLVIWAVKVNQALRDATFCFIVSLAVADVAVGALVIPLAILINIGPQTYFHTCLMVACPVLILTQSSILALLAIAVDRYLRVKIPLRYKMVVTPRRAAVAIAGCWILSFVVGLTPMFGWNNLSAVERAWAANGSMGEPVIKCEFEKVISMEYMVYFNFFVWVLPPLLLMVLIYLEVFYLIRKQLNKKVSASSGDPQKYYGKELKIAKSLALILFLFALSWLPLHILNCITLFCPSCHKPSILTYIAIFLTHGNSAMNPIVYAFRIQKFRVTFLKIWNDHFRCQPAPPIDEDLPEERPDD
Method: Adenosine Receptor Binding: Binding Affinities at hA1 Receptors
The resultant homogenate was kept for immediate use in the binding.
(§1) Binding assays were performed in a total volume of 250 μL, containing [^3H]-DPCPX (3.0 nM), membranes and additional drugs. Total binding was determined using drug dilution buffer (50 mM Tris-HCl pH:7.5, 10 mM MgCl2, 5% DMSO). Non-specific binding was determined using 300 μM N6-cyclohexyladenosine (CHA). […] Filters were left to dry overnight, and Microscint-0 scintillation fluid was then added to the filters. The filters were then left for at least 2 hours before the radioactivity was assessed using a Canberra Packard TopCount microplate scintillation counter.
To determine the free ligand concentration, three vials were counted with 25 μL of [^3H]DPCPX containing 4 mL of Ultima-Gold MV scintillant on a Beckman LS6500 multi-purpose scintillation counter.
(§2) Data was analysed using a 4 parameter logistical equation and non-linear regression which yields affinity constants (pIC50), and slope parameters:
(§3) [formula] where E is the quantity of binding and [A] is the competitor concentration. The Ki is then determined using the Cheng-Prusoff equation: […]

[3] = biological target: T2, human adenosine A3 receptors (Homo sapiens, UniProt P0DMS8); test: Adenosine receptor binding: binding affinities at hA3 receptors ([125I]-AB MECA displacement); conditions: for Binding Selectivity A3/A2a: ratio of Ki values; for Ki: read-out: Binding Affinity hA3-Ki
T2 construct: expressed in transfected cells; host or cells: CHO-K1
T2 sequence (P0DMS8 1-318): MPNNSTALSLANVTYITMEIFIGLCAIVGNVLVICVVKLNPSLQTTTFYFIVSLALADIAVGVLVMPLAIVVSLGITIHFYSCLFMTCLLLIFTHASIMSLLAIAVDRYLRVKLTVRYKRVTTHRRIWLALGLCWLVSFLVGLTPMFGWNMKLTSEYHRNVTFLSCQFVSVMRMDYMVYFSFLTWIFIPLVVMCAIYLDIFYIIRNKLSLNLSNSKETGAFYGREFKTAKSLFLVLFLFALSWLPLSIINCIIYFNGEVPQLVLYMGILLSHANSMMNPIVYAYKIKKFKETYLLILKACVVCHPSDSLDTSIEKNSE
Method: [formula] Adenosine Receptor Binding: Binding Affinities at hA3 Receptors
The resultant homogenate was kept for immediate use in the binding assay.
as §1, with “Total” for “Binding assays were performed in a total volume of 250 μL, containing [^3H]-DPCPX (3.0 nM), membranes and additional drugs. Total”, “pH 7.5,” for “pH:7.5,”, “10” for “300”, “IB-MECA.” for “N6-cyclohexyladenosine (CHA).”
as §2, §3

[4] = biological target: T3, hA2B receptors (Homo sapiens, UniProt P29275); test: Adenosine receptor binding: binding affinities at hA2B receptors ([3H]-ZM241385 displacement); conditions: for Ki: read-out: Binding Affinity hA2B-Ki; for Binding Selectivity A2b/A2a: ratio of Ki values
T3 construct: host or cells: HEK-293
T3 sequence (P29275 1-332): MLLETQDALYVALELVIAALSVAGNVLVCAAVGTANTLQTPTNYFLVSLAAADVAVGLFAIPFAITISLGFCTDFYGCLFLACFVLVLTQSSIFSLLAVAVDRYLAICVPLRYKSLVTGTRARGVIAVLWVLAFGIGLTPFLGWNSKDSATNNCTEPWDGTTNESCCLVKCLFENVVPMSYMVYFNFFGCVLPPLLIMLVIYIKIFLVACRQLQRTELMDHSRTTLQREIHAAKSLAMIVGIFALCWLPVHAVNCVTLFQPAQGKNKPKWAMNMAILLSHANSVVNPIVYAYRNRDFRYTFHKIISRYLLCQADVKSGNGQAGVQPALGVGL

[5] = biological target: T4, human adenosine A2A receptors (Homo sapiens, UniProt P29274); test: Adenosine receptor binding: binding affinities at hA2A receptors ([3H]CGS-21680 displacement); conditions: read-out: Binding Affinity hA2A-Ki
T4 construct: host or cells: HEK-293
T4 sequence (P29274 whole entry): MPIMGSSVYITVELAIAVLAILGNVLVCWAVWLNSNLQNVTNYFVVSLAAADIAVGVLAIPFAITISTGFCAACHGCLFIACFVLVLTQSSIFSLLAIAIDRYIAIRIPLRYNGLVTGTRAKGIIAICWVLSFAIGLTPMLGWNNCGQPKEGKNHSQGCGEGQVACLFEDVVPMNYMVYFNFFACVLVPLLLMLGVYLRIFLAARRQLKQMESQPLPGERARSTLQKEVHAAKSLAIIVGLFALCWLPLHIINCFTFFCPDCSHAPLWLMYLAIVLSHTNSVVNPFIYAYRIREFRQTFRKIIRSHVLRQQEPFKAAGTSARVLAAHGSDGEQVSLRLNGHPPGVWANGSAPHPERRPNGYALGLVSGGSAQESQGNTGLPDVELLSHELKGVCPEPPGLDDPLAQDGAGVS
Method: Adenosine Receptor Binding: Binding Affinities at hA2A Receptors
as §1, with “The resultant homogenate was kept for immediate use in the binding assay. Binding” for “Binding”, “[^3H]-CGS21680 (20.0” for “[^3H]-DPCPX (3.0”, “pH 7.5,” for “pH:7.5,”, “CHA.” for “N6-cyclohexyladenosine (CHA).”
To determine the free ligand concentration, three vials were counted with 25 μL of [^3H]CGS21680 containing 4 mL of Ultima-Gold MV scintillant on a Beckman LS6500 multi-purpose scintillation counter.
as §2, §3

[6] = Table 1, [3H]DPCPX displacement, CHO-K1 membranes
[7] = Table 1, [3H]-ZM241385 displacement, HEK-293 membranes
[8] = Table 1, [3H]CGS-21680 displacement, HEK-293 membranes
[9] = Table 1, [125I]-AB MECA displacement, CHO-K1 membranes
[10] = Table 2, comparative compounds of WO 02/055083

SMILES	In Vivo activity HaloLMA MED [1] [mg/kg]	Ki [2, 6] [nM]	Binding Selectivity A1/A2a ([2]; Table 1)	Binding Selectivity A3/A2a ([3]; Table 1)	Ki [4, 7] [nM]	Binding Selectivity A2b/A2a ([4]; Table 1)	Ki [5, 8] [nM]	Ki [3, 9] [nM]	Ki [2, 10] [nM]	Binding Selectivity A1/A2a ([2]; Table 2)	Ki [3, 10] [nM]	Binding Selectivity A3/A2a ([3]; Table 2)	Ki [4, 10] [nM]	Binding Selectivity A2b/A2a ([4]; Table 2)	Ki [5, 10] [nM]
Cc1ccc(-c2nc(N)nc3c2nnn3Cc2cccc(CO[C@H]3CCOC3)n2)o1 [Example 1, S-7-(5-methylfuran-2-yl)-3-(6-[tetrahydrofuran-3-yl]oxymethylpyrid-2-ylmethyl)-3H-[1,2,3]triazolo[4,5-d]pyrimidin-5-amine]	0.3	–	–	–	–	–	–	–	–	–	–	–	–	–	–
Nc1nc(-c2ccccc2)c2nnn(Cc3cccc(CO[C@H]4CCOC4)n3)c2n1 [Example 7, S-7-phenyl-3-(6-[tetrahydrofuran-3-yl]oxymethylpyrid-2-ylmethyl)-3H-[1,2,3]triazolo[4,5-d]pyrimidin-5-amine]	–	731	54	634	1240	93	13.4	–	–	–	–	–	–	–	–
Nc1nc(-c2ccccc2)c2nnn(Cc3cccc(C4(O)CCC4)n3)c2n1 [Example 11, 7-phenyl-3-(6-[1-hydroxycyclobutyl]pyrid-2-ylmethyl)-3H-[1,2,3]triazolo[4,5-d]pyrimidin-5-amine]	–	320	62	836	3270	634	5.2	4300	–	–	–	–	–	–	–
COc1cccc(-c2nc(N)nc3c2nnn3Cc2cccc(C3(O)CCC3)n2)c1 [Example 17, 7-(3-methoxyphenyl)-3-(6-[1-hydroxycyclobutyl]pyrid-2-ylmethyl)-3H-[1,2,3]triazolo[4,5-d]pyrimidin-5-amine]	–	386	39	196	4690	472	9.9	1950	–	–	–	–	–	–	–
N#Cc1cccc(-c2nc(N)nc3c2nnn3Cc2cccc(C3(O)CCCC3)n2)c1 [Example 21, 7-(3-cyanophenyl)-3-(6-[1-hydroxy-1-cyclopentyl]pyrid-2-ylmethyl)-3H-[1,2,3]triazolo[4,5-d]pyrimidin-5-amine]	–	2390	100	–	2050	86	23.9	–	–	–	–	–	–	–	–
N#Cc1cccc(-c2nc(N)nc3c2nnn3Cc2cccc(C3(O)CCC3)n2)c1 [Example 23, 7-(3-cyanophenyl)-3-(6-[1-hydroxycyclobutyl]pyrid-2-ylmethyl)-3H-[1,2,3]triazolo[4,5-d]pyrimidin-5-amine]	–	1330	90	–	6820	462	14.8	–	–	–	–	–	–	–	–
Nc1cccc(Cn2nnc3c(-c4ccccc4)nc(N)nc32)c1 [WO 02/055083 Example 151, 3-(3-aminobenzyl)-7-phenyl-3H-[1,2,3]triazolo[4,5-d]pyrimidine-5-amine, reference compound]	–	–	–	–	–	–	–	–	102	19	831	156	276	52	5.3
COCc1cccc(Cn2nnc3c(-c4ccc(C)o4)nc(N)nc32)n1 [WO 02/055083 Example 183, 3-(6-methoxymethyl-2-pyridylmethyl)-7-(5-methyl-2-furyl)-3H-[1,2,3]triazolo[4,5-d]pyrimidine-5-amine, reference compound]	–	–	–	–	–	–	–	–	84.1	67	656	519	231	183	1.3
Cl.Nc1nc(-c2ccco2)c2nnn(Cc3cccc(CO)n3)c2n1 [WO 02/055083 Example 213, 7-(2-furyl)-3-(6-hydroxymethyl-2-pyridylmethyl)-3H-[1,2,3]triazolo[4,5-d]pyrimidine-5-amine hydrochloride, reference compound]	–	–	–	–	–	–	–	–	585	216	1700	625	271	100	2.7
CC(C)COCc1cccc(Cn2nnc3c(-c4ccco4)nc(N)nc32)n1 [WO 02/055083 Example 217, 7-(2-furyl)-3-(6-isobutyloxymethyl-2-pyridylmethyl)-3H-[1,2,3]triazolo[4,5-d]pyrimidine-5-amine, reference compound]	–	–	–	–	–	–	–	–	153	53	475	163	382	131	2.9
CC(C)OCc1cccc(Cn2nnc3c(-c4ccco4)nc(N)nc32)n1 [WO 02/055083 Example 247, 7-(2-furyl)-3-(6-isopropoxymethyl-2-pyridylmethyl)-3H-[1,2,3]triazolo[4,5-d]pyrimidine-5-amine, reference compound]	–	–	–	–	–	–	–	–	276	92	1460	487	454	151	3
